Experimental data published in patent publication US8129355B2, “Ketone ligands for modulating the expression of exogenous genes via an ecdysone receptor complex” (priority 2002, dated 2012).
Read-outs that look alike come from different tables or passages of the source.

Tests used:
[1] = target: T1, Bombyx mori EcR (VP16 fusion, switch construct CVBE) with 6XEcRE LacZ reporter (Bombyx mori, UniProt P49881); assay: Z3 assay: β-galactosidase (LacZ) reporter gene fold induction in stably transformed human 293 kidney cells (clone Z3); format: cell-based
T1 construct: expressed in transfected cells; host or cells: Human 293 kidney (HEK-293) cells, retrovirally infected, clone Z3
T1 sequence (P49881 86-606 limits assumed): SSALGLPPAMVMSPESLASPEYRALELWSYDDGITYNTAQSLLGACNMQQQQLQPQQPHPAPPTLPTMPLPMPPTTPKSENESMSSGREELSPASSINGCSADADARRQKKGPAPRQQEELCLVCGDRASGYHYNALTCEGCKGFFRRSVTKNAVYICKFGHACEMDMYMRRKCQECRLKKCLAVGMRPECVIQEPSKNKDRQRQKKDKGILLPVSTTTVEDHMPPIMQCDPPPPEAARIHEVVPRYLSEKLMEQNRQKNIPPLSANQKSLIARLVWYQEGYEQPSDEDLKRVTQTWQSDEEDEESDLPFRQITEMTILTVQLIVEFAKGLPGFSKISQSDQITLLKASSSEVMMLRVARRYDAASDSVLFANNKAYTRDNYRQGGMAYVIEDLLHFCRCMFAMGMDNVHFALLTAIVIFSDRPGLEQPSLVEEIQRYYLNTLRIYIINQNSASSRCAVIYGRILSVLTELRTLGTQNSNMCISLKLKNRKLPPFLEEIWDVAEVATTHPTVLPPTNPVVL
T1 sequence (P19793 1-462 partner): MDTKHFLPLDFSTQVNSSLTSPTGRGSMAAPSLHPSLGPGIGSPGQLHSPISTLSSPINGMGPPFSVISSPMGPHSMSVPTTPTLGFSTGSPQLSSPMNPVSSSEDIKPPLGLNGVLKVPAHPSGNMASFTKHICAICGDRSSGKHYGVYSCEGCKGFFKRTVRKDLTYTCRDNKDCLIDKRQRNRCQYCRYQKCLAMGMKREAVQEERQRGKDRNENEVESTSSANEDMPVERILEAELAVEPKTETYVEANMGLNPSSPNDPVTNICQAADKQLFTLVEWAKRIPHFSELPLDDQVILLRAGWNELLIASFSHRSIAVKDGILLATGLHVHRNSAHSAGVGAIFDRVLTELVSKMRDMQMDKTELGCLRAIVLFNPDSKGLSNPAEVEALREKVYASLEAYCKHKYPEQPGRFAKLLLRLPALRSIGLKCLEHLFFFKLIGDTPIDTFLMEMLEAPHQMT
In short: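 β-Galactosidase read 48 h after dosing by bioluminescent assay; ligand added at 33 μM with DMSO held at 0.03%. The cells are stable 293 clone Z3, expressing a CMV-driven VP16 fusion of Bombyx mori EcR residues 26-546 plus six EcRE copies upstream of lacZ.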

[2] = target: T2, Gal4 DBD/AaEcR (DEF) with VP16-βRXR-E (Aedes aegypti, UniProt P49880); assay: cell-based; format: cell-based; settings: for Fold Induction Average, AA_3T3 Assay (33 μM): single dose 33 μM, RLU ligand treated / RLU DMSO treated cells; for LC50 (half-maximal ligand concentration for reporter induction): average, dose response 33 μM to 0.01 μM, three-parameter logistic model, read-out: AA_3T3 LC50; for AA_3T3 Rel Max FI: maximum fold induction at any concentration relative to that of GS-E ligand
T2 construct: The wildtype D, E, and F domains from mosquito Aedes aegypti EcR (“AaEcR-DEF”); expressed in transfected cells; host or cells: 3T3 cells, transient transfection (Superfect)
Experimental: 3T3 cells were trypsinized and plated at 2.5×10^3 cells/well on a 96-well plate. After incubation for 24 h at 37° C. under 5% CO2, cells were transfected with the Gal4 DBD/AaEcR (DEF) gene expression cassette and the reporter plasmid, pFRLuc, containing a 5XGAL4 response element and the firefly luciferase gene in serum free media using Superfect (Qiagen). After transfection for 4 h at 37° C., the cells were treated with ligand in serum media. […] Single dose testing was performed at 33 μM.

[3] = single dose 33 μM; ligand treated / DMSO treated cells
[4] = maximum fold induction at any concentration relative to that of GS-E ligand
[5] = read-out: Fold Induction Average, Z3 Assay (33 μM)
[6] = read-out: Z3 LC50; average; dose response, three-parameter logistic model
[7] = average; dose response, three-parameter logistic model; read-out: Z3 LC50

T2 sequence (P28704 286-520 A311G/G315S/G445S/I449V): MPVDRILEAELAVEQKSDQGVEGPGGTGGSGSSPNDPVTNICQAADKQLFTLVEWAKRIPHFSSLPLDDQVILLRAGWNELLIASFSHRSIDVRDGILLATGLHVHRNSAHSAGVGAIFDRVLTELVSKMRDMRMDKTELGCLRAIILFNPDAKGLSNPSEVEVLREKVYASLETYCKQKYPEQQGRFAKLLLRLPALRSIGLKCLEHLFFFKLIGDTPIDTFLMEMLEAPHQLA
T2 sequence (P49880 405-776): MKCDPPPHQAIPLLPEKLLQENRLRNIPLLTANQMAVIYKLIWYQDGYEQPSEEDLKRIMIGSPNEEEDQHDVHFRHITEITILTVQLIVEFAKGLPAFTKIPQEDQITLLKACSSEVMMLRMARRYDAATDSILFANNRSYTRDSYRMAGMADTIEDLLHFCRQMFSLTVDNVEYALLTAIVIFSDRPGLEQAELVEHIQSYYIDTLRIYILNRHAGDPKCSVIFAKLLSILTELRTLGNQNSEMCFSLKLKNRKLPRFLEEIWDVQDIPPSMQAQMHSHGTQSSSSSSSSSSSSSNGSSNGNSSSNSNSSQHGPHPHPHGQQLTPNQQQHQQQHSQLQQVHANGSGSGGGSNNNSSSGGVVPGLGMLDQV

| Compound | Fold Induction Average, Z3 Assay (33 μM) [1, 3] | Fold Induction Average, AA_3T3 Assay (33 μM) [2] | Z3 Rel Max FI [1, 4] | CC50 [1, 7] [µM] | other results |
| --- | --- | --- | --- | --- | --- |
| CCOC(=O)C(=O)N1CCCC(NC(=O)c2cccc(OC)c2C)(C(=O)c2cc(C)cc(C)c2)C1 (racemic) [Example 154] | 7 | 2 | – | – | – |
| COc1ccc(C(=O)C2(NC(=O)c3cccc(OC)c3C)CCCCC2)c(OC)n1 [Example 64] | – | – | 0.77 | – | fold induction at 33 µM [1, 5]: 1160; CC50 [1, 6]: 2.62 µM |
| COc1cc(C(=O)C2(NC(=O)c3cccc(OC)c3C)CCCC2)cc(OC)c1C [Example 65] | 151 | – | 0.06 | 8.84 | – |
| COc1cc(C(=O)C2(NC(=O)c3cccc(OC)c3C)CCCCC2)cc(OC)c1C [Example 66] | – | – | 0.17 | – | fold induction at 33 µM [1, 5]: 341; CC50 [1, 6]: 3.33 µM |
| COc1cccc(C(=O)NC2(C(=O)c3cc(F)c(F)c(OC)c3)CCCC2)c1C [Example 67] | – | – | 0.54 | – | fold induction at 33 µM [1, 5]: 666; CC50 [1, 6]: 4.17 µM |
| COc1cccc(C(=O)NC2(C(=O)c3cc(F)c(F)c(OC)c3)CCCCC2)c1C [Example 68] | – | – | 0.70 | – | fold induction at 33 µM [1, 5]: 1010; CC50 [1, 6]: 2.83 µM |
| COc1cccc(C(=O)NC2(C(=O)c3ccccc3)CCCCC2)c1C [Example 69] | – | – | 0.56 | – | fold induction at 33 µM [1, 5]: 1030; CC50 [1, 6]: 7.52 µM |
| COc1ccccc1C(=O)C1(NC(=O)c2cccc(OC)c2C)CCCCCC1 [Example 70] | 831 | 1878 | 0.78 | 1.94 | LC50 (half-maximal ligand concentration for reporter induction) [2]: 3.21 µM; AA_3T3 Rel Max FI [2]: 0.48 |
| COc1cccc(C(=O)NC2(C(=O)c3cc(C)cc(C)c3)CCCCCC2)c1C [Example 71] | 952 | 1277 | 0.69 | 1.61 | LC50 (half-maximal ligand concentration for reporter induction) [2]: 8.18 µM; AA_3T3 Rel Max FI [2]: 0.42 |
| COc1ccccc1C(=O)C(C)(NC(=O)c1cccc(OC)c1C)c1ccc(F)cc1 (stereo not shown) [Example 72] | 1 | 3 | – | – | – |
| COc1ccccc1C(=O)C(C)(C)NC(=O)c1cccc(OC)c1C [Example 74] | 18 | 4 | – | – | – |
| COc1cccc(C(=O)NC(C)(C)C(=O)c2cc(C)cc(C)c2)c1C [Example 75] | 312 | 161 | 0.17 | ~10 | LC50 (half-maximal ligand concentration for reporter induction) [2]: > 33 µM; AA_3T3 Rel Max FI [2]: 0.02 |
| COc1cccc(C(=O)NC(C)(C)C(=O)c2ccccc2)c1C [Example 76] | 1 | – | 0.00 | > 33 | – |
| CCC(CC)(NC(=O)c1cccc(OC)c1C)C(=O)c1ccc(C)cc1 [Example 77] | – | 1 | 0.04 | 32.2 | – |
| CCC(CC)(NC(=O)c1cccc(OC)c1C)C(=O)c1ccccc1 [Example 78] | – | 14 | 0.06 | > 33 | LC50 (half-maximal ligand concentration for reporter induction) [2]: > 33 µM; AA_3T3 Rel Max FI [2]: 0.00 |
| COc1cccc(C(=O)NC2(C(=O)c3ccc(C)cc3)CCCC2)c1C [Example 79] | – | 12 | 0.12 | 34.4 | LC50 (half-maximal ligand concentration for reporter induction) [2]: > 33 µM; AA_3T3 Rel Max FI [2]: 0.00 |
| COc1cccc(C(=O)C(C)(C)NC(=O)c2ccccc2OC)c1 [Example 117] | 1 | – | – | – | – |
| CCCCC(=O)C1(NC(=O)c2cccc(OC)c2C)CCCCC1 [Example 120] | – | – | 0.36 | – | fold induction at 33 µM [1, 5]: 791; CC50 [1, 6]: 6.33 µM |
| O=C(NC1(C(=O)c2ccccc2)CCCC1)c1ccccc1 [Example 139] | – | 2 | 0.00 | > 33 | – |
| COc1cccc(C(=O)NC2(C(=O)c3ccccc3)CCCC2)c1 [Example 141] | – | 1 | 0.00 | > 33 | – |
| CCc1c(OC)cccc1C(=O)NC1(C(=O)c2cc(C)cc(C)c2)CCCCC1 [Example 143] | – | 1929 | 0.85 | 1.81 | LC50 (half-maximal ligand concentration for reporter induction) [2]: 2.81 µM; AA_3T3 Rel Max FI [2]: 0.59 |
| CCc1c(OC)cccc1C(=O)NC1(C(=O)c2cc(C)cc(C)c2)CCCC1 [Example 144] | – | 2339 | 0.86 | 2.15 | LC50 (half-maximal ligand concentration for reporter induction) [2]: 2.67 µM; AA_3T3 Rel Max FI [2]: 0.70 |
| COc1cccc(C(=O)NC2(C(=O)c3cc(C)cc(C)c3)CCN(C(C)=O)CC2)c1C [Example 149] | – | – | – | – | fold induction at 33 µM ([1]; single dose 33 μM; ligand treated / DMSO treated cells; read-out: Fold Induction Average, Z3 Assay (33 μM)): 2; fold induction at 33 µM ([2]; NIH3T3, read-out: Fold Induction Average, AA_3T3 Assay (33 μM)): 2 |
| CCNC(=O)N1CCC(NC(=O)c2cccc(OC)c2C)(C(=O)c2cc(C)cc(C)c2)CC1 [Example 157] | 2 | 1 | – | – | – |
